Tests used:
[1] = tested on: Thromboxane Formation (plasma TXB2); experiment: Whole Blood Aggregation and Thromboxane Formation In Vivo: Guinea Pig (plasma TXB2 by RIA); settings: oral (dose not given), ex vivo collagen-stimulated citrated whole blood, normalized to platelet count
Method: Whole Blood Aggregation and Thromboxane Formation In Vivo: Guinea Pig
All guinea pigs (albino male Dunkin-Bartley, 300-350 g) were fasted overnight before use in the test. The test compound was administered by oral dosing needle to conscious animals. All test compounds, if not water soluble, were administered formulated in a 50% PEG 400/50% carboxymethylcellulose mixture as solution or suspension. Oral dose volumes were 0.1 ml per 100 g body weight.
Animals were anaesthetized with pentabarbitone sodium (60 mg/kg) given intraperitoneally approximately 10 minutes before the bleed time. Once surgically anaesthetized, the peritoneal cavity was opened, and 4.5 ml blood was drawn into a syringe containing 0.5 ml 3.0% trisodium citrate (9:1 v/v) from the abdominal aorta via a 21/23 gauge butterfly needle. The blood was gently mixed with the citrate in the syringe, and transferred to a screwcap plastic tube. Animals were dosed and bled at one hour intervals.
Aggregation of the citrated guinea pig whole blood was carried out within 1-2 hours of bleeding, using standard whole blood aggregometry and counting technique. Aliquots (0.55 ml) of citrated whole blood were heated to 37° C. and stirred at 1000 RPM in an aggregometer. An initial 50 μl sample of blood was withdrawn for counting, collagen was added, and additional samples were withdrawn at 1, 2, 3 and 4 minutes. Aggregation was monitored by noting the decrease in single platelet count. Buffer (no collagen) control were included.
At the end of the four minute incubation for platelet counting, the remainder of each blood sample was allowed to stir for one additional minute. At 5 minutes, 1.0 μl of 19 mg/ml indomethacin (dissolved in dimethylsulfoxide) was added to each sample, resulting in a final indomethacin concentration of 30 ug/ml. The resulting solutions were mixed (15-30 seconds) and cooled on ice. Samples were centrifuged and 150 ul of plasma was removed. The plasma samples were frozen until radioimmunoassay for TXB2. The radioimmunoassay was conducted as previously described at plasma dilutions of 1:20. Two vehicle administered control aminals were run. Groups of at least four animals per test compound were utilized.
The raw results obtained in the RIA from a 0.1 ml sample of 1:20 diluted plasma were corrected to pg/ml in original plasma sample (×200). The R.I.A. values were then normalized for initial platelet count within the blood sample to 5.0×10^8 ml^-1 (range of platelet count in citrated guinea pig whole blood was varied between the limits […] ml^-1). The test and control results were then compared, and inhibition (%) calculated in the normal way. Statistical analysis is again by Student's t-test.

thromboxane synthetase = biological target: T1, thromboxane synthetase (Homo sapiens, UniProt P24557); experiment: Thromboxane production in Human Platelet Rich Plasma (collagen-stimulated, TxB2 radioimmunoassay); assay type: cell-based; settings: 10 min. incubation, collagen 20 μg/ml, 37° C., read-out: ACTIVITY (IC50 × 10^6 M), inhibition of collagen-induced TxB2 generation
T1 construct: The citrated blood was centrifuged at 160 g for 10 mins. at 22° C. to obtain platelet rich plasma (prp); endogenous in cells; host or cells: human platelets in citrated platelet rich plasma from healthy male donors
T1 sequence (P24557 1-533): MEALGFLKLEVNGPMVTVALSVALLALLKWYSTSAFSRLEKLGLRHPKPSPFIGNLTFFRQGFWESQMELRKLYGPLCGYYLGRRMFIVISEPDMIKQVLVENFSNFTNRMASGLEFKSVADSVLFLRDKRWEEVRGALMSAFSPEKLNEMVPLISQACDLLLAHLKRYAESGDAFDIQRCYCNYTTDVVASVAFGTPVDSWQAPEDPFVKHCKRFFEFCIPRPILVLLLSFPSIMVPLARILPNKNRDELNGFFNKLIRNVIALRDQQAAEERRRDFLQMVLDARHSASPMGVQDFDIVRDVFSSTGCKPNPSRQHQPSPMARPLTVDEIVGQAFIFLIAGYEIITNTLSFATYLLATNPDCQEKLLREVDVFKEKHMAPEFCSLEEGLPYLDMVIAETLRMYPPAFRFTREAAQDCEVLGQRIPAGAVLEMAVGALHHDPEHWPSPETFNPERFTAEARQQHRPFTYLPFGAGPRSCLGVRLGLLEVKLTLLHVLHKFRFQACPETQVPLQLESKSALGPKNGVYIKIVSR
Method: (i) inhibition of the generation of thromboxane A2 as determined by radioimmunoassay of its stable metabolite, thromboxane B2 (New England Nuclear, Thromboxane B2 [^3 H] RIA kit, Catalogue No. NEK 007); and
Various compounds of the present invention were evaluated utilizing an in vitro radioimmunoassay as described in the following Example in order to determine inhibition of thromboxane production.
Thromboxane production in Human Platelet Rich Plasma
(a) Platelet rich plasma (prp) preparation
Human venous blood was collected from healthy male donors, who had denied any medication during the previous 14 days. Nine volumes of blood were mixed with one volume of 3.24% trisodium citrate. The citrated blood was centrifuged at 160 g for 10 mins. at 22° C. to obtain platelet rich plasma (prp). The platelets were then counted on a Coulter counter, and the platelet count was adjusted to 200,000 per μl with plasma.
(b) Thromboxane generation
The prp was then dispensed as aliquots into micro-Eppendorf tubes, maintained at 37° C. in a dry bath. The compound to be evaluated was dissolved either in saline, ethanol, or dimethylsulphoxide, and added in duplicate to the prp aliquots to produce a final concentration in the range of 0.1-30 μg/ml. When ethanol or dimethylsulphoxide was used to dissolve the compound, triplicate controls containing the same percentage of ethanol or dimethyl sulphoxide as the test compound was made. The final concentration of organic solvent was never greater than 0.1%, which has been determined to have no effect on TxB2 generation.
Following a 10 min. incubation withtest compounds or controls, collagen was added to the tubes containing the test compounds to produce a final concentration of 20 μg/ml. The tubes were then whirly-mixed for 15 seconds and replaced in the dry bath for a further 10 minutes. Saline was added to the tubes containing the controls, in lieu of collagen. The reaction was then stopped by rapid centrifugation (15000 g for 3 mins). The plasma was removed and frozen at -29° C. until assayed.
(c) Assay of Thromboxane B2
Aliquots (100 μl) of thromboxane TxB2 (plasma extract or standards 50 to 10,000 pg/ml), [^3 H]-TxB2 (approximately 15,000 dpm) and anti-TxB2 antiserum (0.5 μg/100 μl) were combined in […] phosphate buffer+0.1% gelatin+thimerosal (pH 6.8) were incubated for 16 hours at 4° C. The free and protein bound [^3 H]-TxB2 were separated by absorption onto activated charcoal followed by centrifugation. 1.0 ml of the supernatant was added to an aqueous scintillation fluid, and the radioactivity present was counted in a liquid scintillation counter. The binding of [^3 H]-TxB2 in the absence of added TxB2 was approximately 55%. The minimum concentration of TxB2 to be detected accurately in the plasma was 50 pg.ml. Cross reactivity with other prostaglandins was less than 0.005% except with PGD2 wherein the cross reactivity was 1%.
The plasma samples were initially assayed to give approximation of TxB2 content. The plasma was then appropriately diluted and re-assayed in duplicate to give final values.
The amount of TxB2 generated by collagen was calculated by subtracting mean values obtained for the saline stimulated platelets from the mean values obtained from the collagen stimulated platelets. The amount of TxB2 generated in the presence of each concentration of test compound was expressed as a % of control and dose response curves were constructed to determine the concentration of test compound which produced 50% inhibition.

With CCOC(=O)c1ccc(/C=C(\CCCc2ccc(OC)cc2)Cn2ccnc2)cc1 [12 (E-isomer), ethyl 4-[2-[(1H-imidazol-1-yl)-methyl]-5-(4-methoxyphenyl)-1E-pentenyl]benzoate] the “% INHIBITION (plasma TXB2)” value [1] was -92.3% and the IC50 (thromboxane synthetase) was 0.15 µM.

Work on CCOC(=O)CCCCCC=C(CCCc1ccc(OC)cc1)Cn1ccnc1 [Example 8, Ethyl 8-[(1H-imidazol-1-yl)methyl]-11-(4-methoxyphenyl)-7-undecenoate] yielded an IC50 (thromboxane synthetase) of 1.8 µM.

In the case of CCOC(=O)c1ccc(/C=C(/COCc2ccc(OC)cc2)Cn2ccnc2)cc1OC [11 (E-isomer)], the “% INHIBITION (plasma TXB2)” value [1] is reported as -36.0% and the IC50 (thromboxane synthetase) is reported as 21.8 µM.

With COc1ccc(COCC(=CCCCCCC(=O)O)Cn2ccnc2)cc1 [Example 5, 9-(1H-Imidazol-1-yl)-8-[[(4-methoxyphenyl)methoxy]methyl]-7-nonenoic acid] the “% INHIBITION (plasma TXB2)” value [1] was -4.0% and the IC50 (thromboxane synthetase) was 4.6 µM.

In the case of COc1ccc(COC/C(=C\c2ccc(C(=O)O)cc2)Cn2ccnc2)cc1 [Example 3, 4-[3-(1H-Imidazol-1-yl)-2-[[(4-methoxyphenyl)methoxy]methyl]-1Z-propenyl]benzoic acid], the IC50 (thromboxane synthetase) is reported as 0.56 µM.

CCOC(=O)c1ccc(/C=C(/COCc2ccc(OC)cc2)Cn2ccnc2)cc1 [1 (E-isomer), ethyl 4-[3-(1H-imidazol-1-yl)-2-[[(4-methoxyphenyl)methoxy]methyl]-1E-propenyl]benzoate] gave an IC50 (thromboxane synthetase) of 0.89 µM.

CCOC(=O)c1cccc(/C=C(/COCc2ccc(OC)cc2)Cn2ccnc2)c1 [9 (E-isomer), ethyl 3-[3-(1H-imidazol-1-yl)-2-[[(4-methoxyphenyl)methoxy)methyl]-1E-propenyl]-benzoate] was tested, and the IC50 (thromboxane synthetase) was 403 µM.

For CCOC(=O)c1ccc(/C=C(\COCc2ccc(F)cc2)Cn2ccnc2)cc1 [13 (Z-isomer), ethyl 4-[2-[[(4-fluorophenyl)methoxy]-methyl]-3-(1H-imidazol-1-yl)-1Z-propenyl]benzoate], the “% INHIBITION (plasma TXB2)” value [1] was -49.1% and the IC50 (thromboxane synthetase) was 0.45 µM.

CCOC(=O)CCCCCC=C(COCc1ccc(OC)cc1)Cn1ccnc1 [Example 4, ethyl 9-(1H-imidazol-1-yl)-8-[[(4-methoxyphenyl)methoxy]methyl]-7-nonenoate] was tested, and the IC50 (thromboxane synthetase) was 9.3 µM.

In the case of COc1ccc(C=C(COCc2ccc(OC)cc2)Cn2ccnc2)cc1 [Example 7, 1-[3-(4-Methoxyphenyl)-2-[[(4-methoxyphenyl)methoxy]methyl]-2-propenyl]-1H-imidazole], the IC50 (thromboxane synthetase) is reported as 17.3 µM.

In the case of CCOC(=O)c1ccc(/C=C(/COCc2ccc(OC)cc2)Cn2ccnc2)cc1Cl [10 (E-isomer)], the “% INHIBITION (plasma TXB2)” value [1] is reported as -18.6% and the IC50 (thromboxane synthetase) is reported as 4.78 µM.

CCOC(=O)c1ccc(/C=C(\COCc2ccc(OC)cc2)Cn2ccnc2)cc1 [1 (Z-isomer), ethyl 4-[3-(1H-imidazol-1-yl)-2-[[(4-methoxyphenyl)methoxy]methyl]-1Z-propenyl]benzoate] was tested, and the “% INHIBITION (plasma TXB2)” value [1] was -45.5% and the IC50 (thromboxane synthetase) was 0.022 µM.

COc1ccc(COCC(=CCCCCC(=O)O)Cn2ccnc2)cc1 [Example 6, 8-(1H-Imidazol-1-yl)-7-[[(4-methoxyphenyl)methoxy]methyl]-6-octenoic acid] was tested, and the IC50 (thromboxane synthetase) was 1.4 µM.

For COc1ccc(COC/C(=C/c2ccc(C(=O)O)cc2)Cn2ccnc2)cc1 [Example 2, 4-[3-(1H-imidazol-1-yl)-2-[[(4-methoxyphenyl)methoxy]methyl]-1E-propenyl]benzoic acid], the IC50 (thromboxane synthetase) was 18.2 µM.

Molecule CCOC(=O)c1cccc(/C=C(\COCc2ccc(OC)cc2)Cn2ccnc2)c1 [9 (Z-isomer), ethyl 3-[3-(1H-imidazol-1-yl)-2-[[(4-methoxyphenyl)methoxy]methyl]-1Z-propenyl]benzoate] has an IC50 (thromboxane synthetase) of 11.5 µM.

Reference: patent publication US4837333A, “Substituted alkylidene imidazoles” (G. D. Searle & Co., priority 1987, dated 1989)
